Laboratory results: patent US20170223976A1, “MODIFIED MILK POWDER CONTAINING 1,5-ANHYDRO-D-GLUCITOL” (NIHON STARCH CO., LTD., priority 2015, published 2017)

Assays:
CSH-1 gene = CSH-1 gene expression in placental trophoblastic cells, real-time RT-PCR; format: cell-based, human; details: 160 μg/mL 1,5-AG, after 72 hours
Method: The influence upon these two genes (PSG-1 and CSH-1) of 1,5-AG was analyzed by a real-time RT-PCR method using placental trophoblastic cells. As a preliminary study, the expression level of PSG-1 was analyzed at three concentrations (1 μg/mL or less, 40 μg/mL and 160 μg/mL of 1,5-AG) and for three sampling times (3, 24 and 72 hours). A test was conducted by the following method.
Human placental villous trophoblastic cells (ScienCell Research Laboratories)
The human placental villous trophoblastic cells were initiated in a T-75 flask by using a trophoblast medium (to be simply referred to as “medium” hereinafter) to be cultured in a CO2 incubator (5% CO2, 37° C., moistening). […] Then, the supernatant was removed by centrifugation (180 g, 5 minutes), a new medium was added to stir the cells, the number of the cells was counted by using a corpuscle calculating board, and a medium was used to achieve a target concentration (4.0×10^3 cells/100 μL). […]
The PCR reaction was carried out under the conditions of 95° C.·30 sec−(95° C.·10 sec−60° C.·30 sec)×45 cycles−95° C.·15 sec−55° C.·15 sec−95° C.·15 sec, and the dissociation curve of the PCR product was obtained after the end of the PCR reaction. The relative expression level was calculated by the ? […]

PSG-1 gene = PSG-1 gene expression in intestinal tract cells (Caco-2), real-time RT-PCR; format: cell-based; details: Caco-2 cells; for expression level of PSG-1 gene relative to non-added section: 3 days
Method: PSG-1 is a gene which is expressed in placental cells in large quantities in pregnancy. The influence of 1,5-AG upon the expression of PSG-1 in intestinal tract cells which is not connected with pregnancy was investigated.
A test was carried out at five concentrations (1.6, 8, 40, 200 and 1,000 μg/mL) of 1,5-AG. Stated more specifically, a 1,5-AG aqueous solution having a concentration of 100 mg/mL was diluted with water to prepare 100 times-concentrated solutions having concentrations of 0.16, 0.8, 4, 20 and 100 mg/mL. These 100 times-concentrated solutions were each added to a medium in a ratio of 1/100 to achieve final concentrations of […] and sterilized with a filter to be used in the test. As a negative control, water was added to a medium in a ratio of 1/100 and sterilized with a filter to be used in the test.
A medium was used to adjust Caco-2 cells to a concentration of 1×10^5 cells/0.3 mL/well, and the cells were scattered on a 48-well plate to be cultured in a CO2 incubator (5% CO2, 37° C.) for 14 days (medium was exchanged every other day). After culture, it was confirmed that the cells were differentiated into intestinal epidermoid cells, the medium was replaced by a sample-containing test medium and a control-containing test medium to culture the cells in a CO2 incubator for 3 days, and total RNA was extracted from the cells to analyze the expression level of PSG-1 gene. These procedures were repeated five times each.
Total RNA was extracted by using the FastLane Cell cDNA kit. […]
The synthesis of cDNA was carried out by using the QuantiTect reverse transcription kit. […]
Real-time PCT was carried out by an intercalator method using SYBR Green I. Stated more specifically, a total of an 8 μL system consisting of 1 μL of synthesized cDNA, 2.6 μL of dsH2O, 4 μL of SYBR Premix ExTag, 0.2 μL of Forward primer (5 μM) and 0.2 μL of Reverse primer (5 μM) was used. […] The relative expression level was calculated by the ? […]

Compound: OC[C@H]1OC[C@H](O)[C@@H](O)[C@@H]1O [1,5-AG, 1,5-anhydro-D-glucitol]
- expression level of CSH-1 gene relative to non-added section (CSH-1 gene): 0.92 time
- expression level of PSG-1 gene relative to non-added section (PSG-1 gene; 8 μg/mL): 1.31 times
- expression level of PSG-1 gene relative to non-added section (PSG-1 gene; 40 μg/mL): 1.34 times
- average expression level of PSG-1 gene versus non-added section (PSG-1 gene; 3 days, 1,5-AG added section): tends to become higher
